Assay results published in patent publication US20090215796A1, “Compositions, Kits and Methods for a Titration Schedule for Pardoprunox Compounds” (Solvay Pharmaceuticals B.V., priority 2008, published 2009).

Legend:
human subjects = assay: Clinical investigations on pardoprunox hydrochloride (general tolerability); type: in vivo
dopamine D3 receptor = dopamine D3 receptor (Homo sapiens, UniProt P35462); conditions: cited from earlier work
animal models = conditions: cited from earlier work
dopamine D2 receptor = dopamine D2 receptor (Homo sapiens, UniProt P14416); conditions: cited from earlier work
early PD patients = assay: First pivotal study S308.3.001, fixed and flexible dose arms versus placebo; type: in vivo, human
Protocol: In the first pivotal study in early PD patients (study S308.3.001), the efficacy and safety of two fixed dose arms of pardoprunox (6 mg/day [n=115; Group 1] and 12 mg/day [n=118; Group 2]), and a flexible dose arm (12-42 mg/day [n=116; Group 3]) was compared to placebo (n=119) (see Table 6 for titration schedules used).

[1] = test system: subjects with PD characterized by motor fluctuations; assay: Safety study S308.3.005, two titration schedules of pardoprunox as adjunctive treatment to L-dopa; type: in vivo, human
Protocol: In this study, primarily a safety study, 62 subjects with PD characterized by motor fluctuations were randomized to one of three different treatment arms, consisting of two pardoprunox treatment arms (total daily dose 0.3-42 mg three times daily [tid]; groups 1 [25 subjects] and 2 [26 subjects]) and one placebo arm [11 subjects]). The study included a seven-week ascending dose period of pardoprunox as adjunctive treatment to L-dopa. The effect of two different titration schedules was investigated on the safety and tolerability profile, as well as the need and time required for L-dopa dose and/or regimen adjustments (see Table 4). The difference between the two pardoprunox groups was in titration steps taken to achieve at the same time the main study dose levels, namely Group 1—weekly, larger dose increments versus Group 2—with every 3 and 4-days smaller dose steps to the same ‘end of week’ pardoprunox main doses. In the group with the more gradual titration more than 92% of the subjects (24 out of 26) reached doses of 18 mg/day or higher, and 65% (17 out of 26 subjects) reached the highest dose level of 42 mg/day.

subjects with early PD = assay: Double-blind, placebo-controlled proof of principle study S308.2.004, pardoprunox monotherapy; type: in vivo, human
Protocol: In a double-blind, placebo-controlled proof of principle (PoP) study (S308.2.004), the effects of pardoprunox on efficacy, safety and tolerability as monotherapy in early PD were investigated including 138 randomized and treated subjects. Following a fixed-flexible titration period (average length of 24 days), subjects were kept on maintenance dose levels for three weeks (9, 12, 15, 18, 24, 30, 36 or 45 mg/day). Study medication was taken orally three times daily (tid), in the morning, at noon and in the evening, with any missed doses not taken subsequently.
The dose of pardoprunox was progressively titrated from 0.3 mg/day to 9 mg/day according to a predefined schedule within 10 days, and to 30 mg/day within 20 days, by giving single dose unit or a combination of single dose unit. Daily doses were given over the day in the form of three dosage units. Up to the dose of 30 mg/day the titration was based on tolerability only, meaning that every next day (until step 10) or every other day (step 10-14) the dose was to be increased with one step if well-tolerated by the patient (see Table 3). […] From that moment, the patient had to stay on that lower dose level for 2 full days (at least 6 administrations) before trying the higher level again. The first administration of the higher dose had to be done in the morning. For a given titration step only one subsequent second attempt was allowed to reach the higher dose level. In total, three dose adjustments (on different titration steps) were allowed. If patients still could not reach a certain dose level after two sequential attempts and that dose level was below the minimum required dose level of 9 mg/day, they were not allowed to enter the maintenance phase. If a dose level of at least 9 mg/day has already been reached, they were allowed to maintain that dose level for the entire maintenance phase. Patients who reached the 30 mg/day dose could continue to escalate to 45 mg if tolerability allowed, and if further efficacy was expected. […]

5-HT1A = target: T1, 5-HT1A (Homo sapiens, UniProt P08908); conditions: cited from earlier work
T1 sequence (P08908 1-422): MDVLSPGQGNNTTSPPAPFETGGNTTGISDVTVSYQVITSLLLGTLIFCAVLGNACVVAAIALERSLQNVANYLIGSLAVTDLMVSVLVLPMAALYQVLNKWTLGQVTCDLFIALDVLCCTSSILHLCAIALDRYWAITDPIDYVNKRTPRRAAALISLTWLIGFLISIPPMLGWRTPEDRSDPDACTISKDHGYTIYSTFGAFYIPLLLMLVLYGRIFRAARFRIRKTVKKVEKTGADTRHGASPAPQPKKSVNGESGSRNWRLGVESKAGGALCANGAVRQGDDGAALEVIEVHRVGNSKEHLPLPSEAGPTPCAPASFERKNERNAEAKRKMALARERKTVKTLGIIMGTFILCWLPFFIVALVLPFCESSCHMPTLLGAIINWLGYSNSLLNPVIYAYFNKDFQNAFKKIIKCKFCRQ

Chain of dopamine D3 receptor (P35462 whole entry): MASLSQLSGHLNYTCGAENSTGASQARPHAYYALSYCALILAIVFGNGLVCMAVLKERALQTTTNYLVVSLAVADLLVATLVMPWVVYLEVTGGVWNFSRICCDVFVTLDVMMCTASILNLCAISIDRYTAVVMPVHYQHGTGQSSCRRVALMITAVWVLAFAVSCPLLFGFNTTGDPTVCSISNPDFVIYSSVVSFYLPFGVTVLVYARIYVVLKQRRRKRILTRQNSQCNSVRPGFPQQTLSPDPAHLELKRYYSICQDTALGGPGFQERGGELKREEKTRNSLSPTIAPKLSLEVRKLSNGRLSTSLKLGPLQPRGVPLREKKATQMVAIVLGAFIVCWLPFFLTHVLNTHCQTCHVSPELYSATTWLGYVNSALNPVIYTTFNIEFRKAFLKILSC
Chain of dopamine D2 receptor (P14416 whole entry): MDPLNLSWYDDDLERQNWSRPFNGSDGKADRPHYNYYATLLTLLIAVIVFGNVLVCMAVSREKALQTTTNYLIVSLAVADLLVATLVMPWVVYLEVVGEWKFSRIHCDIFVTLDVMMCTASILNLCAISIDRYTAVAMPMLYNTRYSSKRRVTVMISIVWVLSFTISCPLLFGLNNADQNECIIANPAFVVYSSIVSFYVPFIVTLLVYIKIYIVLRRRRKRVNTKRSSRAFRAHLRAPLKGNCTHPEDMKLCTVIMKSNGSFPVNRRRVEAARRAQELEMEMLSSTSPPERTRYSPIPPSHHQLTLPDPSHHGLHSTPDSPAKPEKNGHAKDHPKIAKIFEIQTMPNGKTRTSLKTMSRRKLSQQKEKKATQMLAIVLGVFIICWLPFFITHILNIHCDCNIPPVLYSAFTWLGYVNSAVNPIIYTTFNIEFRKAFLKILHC

SMILES	tolerability (human subjects; clinical investigations)	agonist activity at dopamine D3 receptor (dopamine D3 receptor)	anti-PD effect (animal models)	antidepressant and anxiolytic efficacy (animal models)	agonist activity at dopamine D2 receptor (dopamine D2 receptor)	tolerability (early PD patients; 6 mg/day fixed dose group versus higher dose groups)	primary outcome measure UPDRS motor score versus placebo (early PD patients; all active treatment arms: 6 mg/day, 12 mg/day, 12-42 mg/day)	minimum effective dose (early PD patients; early PD patient population, conclusion from study) [mg/day]	doses or titration steps not tolerated (defined as causing more than 20% drop outs) ([1]; 0.3-42 mg/day tid)	subjects who terminated the study due to treatment related Adverse Effects ([1]; between 18 and 30 mg/day, group with smaller dose increments (four subjects)) [%]	drop-out rate ([1]; group with the larger, weekly dose increments (Group 1) compared with Group 2 and placebo, FIG. 1)	subjects who reached the highest dose level of 42 mg/day ([1]; group with the more gradual titration (Group 2), 17 out of 26 subjects) [%]	drop out rate due to treatment related Adverse Effects ([1]; up to the 18 mg/day dose, group with smaller dose increments) [%]	efficacy between subgroups treated with 9-15 mg/day, 18-30 mg/day and >30-45 mg/day (subjects with early PD; explorative evaluation, dose/effect plot)	subjects who reached the highest dose level of 45 mg/day (subjects with early PD; flexible titration based on tolerability, tid oral)	subjects treated with pardoprunox doses of ≧30 mg/day (subjects with early PD; flexible titration based on tolerability, tid oral, maintenance 9-45 mg/day)	tolerability (human subjects; healthy human subjects)	agonist activity at 5-HT1A (5-HT1A)
CN1CCN(c2cccc3[nH]c(=O)oc23)CC1.Cl [pardoprunox hydrochloride, 7-(4-methyl)-1-piperazinyl-2(3H)-benzoxazolone hydrochloride]	well tolerated																	
CN1CCN(c2cccc3[nH]c(=O)oc23)CC1 [pardoprunox, 7-(4-methyl)-1-piperazinyl-2(3H)-benzoxazolone]		partial dopamine D2 and D3 receptor agonist	marked and long-lasting anti-PD effect	evidence of antidepressant and anxiolytic efficacy	partial dopamine D2 and D3 receptor agonist	better than that of the higher dose groups	statistically superior to placebo	< 12	no particular doses or titration steps that could not be tolerated	15	much higher drop-out rate	65	4	did not provide any clear differences in efficacy	approximately 16%	Approximately 40%	relatively well tolerated	full 5-HT1A agonist activity
